Data published in the NIST ThermoML archive (doi:10.1016/j.jct.2006.12.003).
Numbers after ± are expanded uncertainties.

How the values were obtained:
[1] = 293.15 K; 101.33 kPa; Liquid
[2] = refractive index (Na D-line) (dimensionless); conditions: 293.15 K; 101.33 kPa; Liquid; Standard Abbe refractometry

mass density [1] [kg/m3] | refractive index [2] | SMILES
1251 ± 1 | 1.4445 ± 0.0007 | ClCCCl [1,2-dichloroethane]
1049.4 ± 0.3 | 1.3713 ± 0.0007 | CC(=O)O [acetic acid]

SMILES | mass density [1] [kg/m3] | refractive index [2]
Cc1ccccc1 [toluene] | 862.2 ± 0.5 | 1.4953 ± 0.0007
